In US20100099198A1 (priority 2008, published 2010):

Target: (WT)7 αHL protein pore (Staphylococcus aureus, UniProt P09616)
Details: pH 7.5

Sequence of (WT)7 αHL protein pore (P09616 27-319 limits assumed): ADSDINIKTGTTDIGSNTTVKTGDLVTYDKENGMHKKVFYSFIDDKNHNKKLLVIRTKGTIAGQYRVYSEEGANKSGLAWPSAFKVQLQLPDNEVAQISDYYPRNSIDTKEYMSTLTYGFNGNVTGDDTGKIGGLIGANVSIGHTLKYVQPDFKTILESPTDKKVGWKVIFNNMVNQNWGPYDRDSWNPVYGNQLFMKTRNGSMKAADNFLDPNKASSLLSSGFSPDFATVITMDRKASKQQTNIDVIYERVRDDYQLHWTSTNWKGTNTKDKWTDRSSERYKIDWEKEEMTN

Y-Y-Y-Y-Y-Y [Y6] showed a dwell time of 1.2 ms.
